target: Acetylcholinesterase (Homo sapiens, UniProt P22303); experiment: Inhibition of AChE (unknown origin) using acetylthiocholine chloride as substrate after 15 min by Ellman's method
Sequence (P22303 whole entry): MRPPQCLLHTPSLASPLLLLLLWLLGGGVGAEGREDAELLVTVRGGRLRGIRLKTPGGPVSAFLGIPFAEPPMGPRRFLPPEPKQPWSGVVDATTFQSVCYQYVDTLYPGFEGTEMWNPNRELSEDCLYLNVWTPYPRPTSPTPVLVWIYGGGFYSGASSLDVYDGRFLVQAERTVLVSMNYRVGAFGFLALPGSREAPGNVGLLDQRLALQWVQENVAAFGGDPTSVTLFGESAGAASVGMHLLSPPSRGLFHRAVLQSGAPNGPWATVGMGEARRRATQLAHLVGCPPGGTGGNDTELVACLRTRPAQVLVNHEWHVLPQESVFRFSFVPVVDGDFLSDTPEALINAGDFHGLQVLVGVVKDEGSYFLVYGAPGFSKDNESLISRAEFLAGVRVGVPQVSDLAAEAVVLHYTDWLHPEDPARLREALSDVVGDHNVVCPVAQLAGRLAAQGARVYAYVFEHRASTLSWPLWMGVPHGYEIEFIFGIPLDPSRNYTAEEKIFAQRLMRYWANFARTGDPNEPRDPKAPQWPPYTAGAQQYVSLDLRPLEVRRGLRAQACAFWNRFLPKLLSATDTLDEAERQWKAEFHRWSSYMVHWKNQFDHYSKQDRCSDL

Point of comparison: Cc1nc2nc3c(c(N)c2c(-c2ccccc2)c1C(=O)OC(C)C)CCCC3, IC50 1.2 µM. Against it:
- CCOC(=O)C1=C(C)Oc2nc3c(c(N)c2[C@H]1c1cccc([N+](=O)[O-])c1)CCCC3 — 1.6-fold higher, 1.91 µM
- CCOC(=O)C1=C(C)Oc2nc3c(c(N)c2[C@H]1c1ccccc1)CCC3 — 3.2-fold higher, 3.89 µM
- CCOC(=O)C1=C(C)Oc2nc3c(c(N)c2[C@H]1c1cccnc1OC)CCCC3 — 3.2-fold higher, 3.89 µM
- CCOC(=O)C1=C(C)Oc2nc3c(c(N)c2[C@H]1c1cccnc1Br)CCCC3 — 1.6-fold higher, 1.86 µM
- CCOC(=O)C1=C(C)Oc2nc3c(c(N)c2[C@H]1c1cccnc1Cl)CCCC3 — 1.8-fold higher, 2.14 µM
- CC1(C)CC(=O)C2=C(C1)Oc1nc3c(c(N)c1[C@H]2c1ccccc1)CCCC3 — 41-fold higher, 49 µM
- CC1(C)CC(=O)C2=C(C1)Oc1nc3c(c(N)c1[C@H]2c1ccc(F)cc1)CCCC3 — 58-fold higher, 69.2 µM
- CC1(C)CC(=O)C2=C(C1)Oc1nc3c(c(N)c1[C@H]2c1ccccc1C(F)(F)F)CCCC3 — 15-fold higher, 17.8 µM
- CC1(C)CC(=O)C2=C(C1)Oc1nc3c(c(N)c1[C@H]2c1cccc([N+](=O)[O-])c1)CCCC3 — 10-fold higher, 12 µM
- CC1(C)CC(=O)C2=C(C1)Oc1nc3c(c(N)c1[C@H]2c1ccc([N+](=O)[O-])cc1)CCCC3 — 78-fold higher, 93.3 µM
- Cc1ccc([C@H]2C3=C(CC(C)(C)CC3=O)Oc3nc4c(c(N)c32)CCCC4)cc1 — 43-fold higher, 51.3 µM
- COc1ccccc1[C@H]1C2=C(CC(C)(C)CC2=O)Oc2nc3c(c(N)c21)CCCC3 — 5.9-fold higher, 7.08 µM
- COc1cccc([C@H]2C3=C(CC(C)(C)CC3=O)Oc3nc4c(c(N)c32)CCCC4)c1 — 18-fold higher, 21.4 µM
- COc1ccc([C@H]2C3=C(CC(C)(C)CC3=O)Oc3nc4c(c(N)c32)CCCC4)cc1 — 34-fold higher, 40.7 µM
- CCOC(=O)C1=C(C)Nc2nc3c(c(N)c2[C@H]1c1ccccc1)CCCC3 — 15-fold lower, 0.0794 µM
- CCOC(=O)C1=C(C)Nc2nc3c(c(N)c2[C@H]1c1ccc([N+](=O)[O-])cc1)CCCC3 — 2-fold lower, 0.603 µM
- CCOC(=O)C1=C(C)Nc2nc3c(c(N)c2[C@H]1c1ccc(C)cc1)CCCC3 — 13-fold lower, 0.0912 µM
- CC1(C)CC(=O)C2=C(C1)Nc1nc3c(c(N)c1[C@H]2c1ccccc1)CCCC3 — 3.7-fold lower, 0.324 µM
- CC1(C)CC(=O)C2=C(C1)Nc1nc3c(c(N)c1[C@H]2c1ccc(F)cc1)CCCC3 — 2.2-fold lower, 0.537 µM
- Cc1ccc([C@H]2C3=C(CC(C)(C)CC3=O)Nc3nc4c(c(N)c32)CCCC4)cc1 — 5.2-fold lower, 0.229 µM
- COc1ccc([C@H]2C3=C(CC(C)(C)CC3=O)Nc3nc4c(c(N)c32)CCCC4)cc1 — 5.5-fold lower, 0.219 µM
- CC1(C)CC(=O)C2=C(C1)Nc1nc3c(c(N)c1[C@H]2c1ccncc1)CCCC3 — 2-fold lower, 0.603 µM
- CCOC(=O)c1c(C)nc2nc3c(c(N)c2c1-c1ccc(C)cc1)CCCCC3 — 11-fold higher, 12.9 µM
- CCOC(=O)c1c(C)nc2nc3c(c(N)c2c1-c1ccccc1OC)CCCCC3 — 18-fold higher, 21.9 µM
- CCOC(=O)c1c(C)nc2nc3c(c(N)c2c1-c1ccc(Cl)cc1)CCCCC3 — 16-fold higher, 19.1 µM
- CCOC(=O)c1c(C)nc2nc3c(c(N)c2c1-c1cccc([N+](=O)[O-])c1)CCCCC3 — 12-fold higher, 14.1 µM
- CCOC(=O)c1c(C)nc2nc3c(c(N)c2c1-c1ccccc1)CCCCCC3 — 14-fold higher, 17 µM
- CCOC(=O)c1c(C)nc2nc3c(c(N)c2c1-c1ccc(OC)cc1)CCCCCC3 — 14-fold higher, 17 µM
- CCOC(=O)C1=C(C)Oc2nc3c(c(N)c2[C@H]1c1ccncc1)CCC3 — 5.5-fold higher, 6.61 µM
- CCOC(=O)C1=C(C)Oc2nc3c(c(N)c2[C@H]1c1cccs1)CCC3 — 23-fold higher, 27.5 µM
- CCOC(=O)C1=C(C)Oc2nc3c(c(N)c2[C@H]1c1ccc(OC)cc1)CCCC3 — within 1.5-fold, 0.871 µM
- CCOC(=O)C1=C(C)Oc2nc3c(c(N)c2[C@H]1c1ccncc1)CCCC3 — 2.5-fold higher, 3.02 µM
- CCOC(=O)C1=C(C)Oc2nc3c(c(N)c2[C@H]1c1cccnc1)CCCC3 — 5.9-fold higher, 7.08 µM
- CCOC(=O)C1=C(C)Oc2nc3c(c(N)c2[C@H]1c1cccs1)CCCC3 — 20-fold higher, 24.5 µM
- CCOC(=O)C1=C(C)Oc2nc3c(c(N)c2[C@H]1c1ccco1)CCCC3 — within 1.5-fold, 1.7 µM
- CCOC(=O)C1=C(C)Oc2nc3c(c(N)c2[C@H]1c1ccncc1)CCCCC3 — 7.1-fold higher, 8.51 µM
- CCOC(=O)C1=C(C)Oc2nc3c(c(N)c2[C@H]1c1cccnc1)CCCCC3 — 27-fold higher, 32.4 µM
- CCOC(=O)C1=C(C)Oc2nc3c(c(N)c2[C@H]1c1cccs1)CCCCC3 — 12-fold higher, 14.5 µM
- CCOC(=O)C1=C(C)Oc2nc3c(c(N)c2[C@H]1c1cccc(OC)c1)CCC3 — 20-fold higher, 24 µM
- CCOC(=O)C1=C(C)Oc2nc3c(c(N)c2[C@H]1c1ccc(OC)c(OC)c1)CCC3 — 22-fold higher, 26.9 µM
- CCOC(=O)C1=C(C)Oc2nc3c(c(N)c2[C@H]1c1cccc(OC)c1)CCCC3 — 6.5-fold higher, 7.76 µM
- CCOC(=O)C1=C(C)Oc2nc3c(c(N)c2[C@H]1c1ccc(OC)c(OC)c1)CCCC3 — 3.8-fold higher, 4.57 µM
- CCOC(=O)C1=C(C)Oc2nc3c(c(N)c2[C@H]1c1cccc(OC)c1)CCCCC3 — 11-fold higher, 12.9 µM
- CCOC(=O)C1=C(C)Oc2nc3c(c(N)c2[C@H]1c1ccccc1OC)CCCCC3 — 17-fold higher, 20.9 µM
- CCOC(=O)C1=C(C)Oc2nc3c(c(N)c2[C@H]1c1ccc(OC)c(OC)c1)CCCCC3 — 28-fold higher, 33.1 µM
- CCOC(=O)C1=C(C)Oc2nc3c(c(N)c2[C@H]1c1ccccc1)CCCC3 — within 1.5-fold, 1.55 µM
- CCOC(=O)C1=C(C)Oc2nc3c(c(N)c2[C@H]1c1ccc(C)cc1)CCCC3 — 1.5-fold higher, 1.82 µM
- CCOC(=O)C1=C(C)Oc2nc3c(c(N)c2[C@H]1c1ccc(Cl)cc1)CCCC3 — 1.6-fold higher, 1.95 µM
- CCOC(=O)C1=C(C)Oc2nc3c(c(N)c2[C@H]1c1ccc(C#N)cc1)CCCC3 — 2.9-fold higher, 3.47 µM
- CCOC(=O)c1c(C)nc2nc3c(c(N)c2c1-c1ccc(OC)cc1)CCCCC3 — within 1.5-fold, 1.35 µM
- CCOC(=O)c1c(C)nc2nc3c(c(N)c2c1-c1ccc(OC)c(OC)c1)CCCC3 — within 1.5-fold, 1.29 µM
- CCOC(=O)c1c(C)nc2nc3c(c(N)c2c1-c1ccc(F)cc1)CCCC3 — 1.7-fold lower, 0.708 µM
- CCOC(=O)c1c(C)nc2nc3c(c(N)c2c1-c1ccc(F)cc1)CCCCC3 — 4.5-fold higher, 5.37 µM
- CCOC(=O)c1c(C)nc2nc3c(c(N)c2c1-c1ccc(Cl)cc1)CCCC3 — within 1.5-fold, 1.29 µM
- CCOC(=O)c1c(C)nc2nc3c(c(N)c2c1-c1ccc(OC)c(OC)c1)CCCCC3 — 5.4-fold higher, 6.46 µM
- CCOC(=O)c1c(C)nc2nc3c(c(N)c2c1-c1ccccc1)CCCC3 — within 1.5-fold, 0.813 µM
- CCOC(=O)c1c(C)nc2nc3c(c(N)c2c1-c1ccccc1)CCCCC3 — 17-fold higher, 20.9 µM
- CCOC(=O)c1c(C)nc2nc3c(c(N)c2c1-c1ccc(OC)cc1)CCCC3 — 7.4-fold higher, 8.91 µM
- CCOC(=O)c1c(C)nc2nc3c(c(N)c2c1-c1ccncc1)CCC3 — 6.8-fold higher, 8.13 µM
- CCOC(=O)c1c(C)nc2nc3c(c(N)c2c1-c1ccncc1)CCCC3 — within 1.5-fold, 1.41 µM
- CCOC(=O)c1c(C)nc2nc3c(c(N)c2c1-c1ccccc1)CCC3 — 10-fold higher, 12 µM
- CCOC(=O)c1c(C)nc2nc3c(c(N)c2c1-c1ccc(OC)cc1)CCC3 — 12-fold higher, 13.8 µM
- CCOC(=O)c1c(C)nc2nc3c(c(N)c2c1-c1cccc(OC)c1)CCCC3 — the same, 1.2 µM
- CCOC(=O)c1c(C)nc2nc3c(c(N)c2c1-c1cccc([N+](=O)[O-])c1)CCCC3 — within 1.5-fold, 0.933 µM
- CCOC(=O)c1c(C)nc2nc3c(c(N)c2c1-c1ccncc1)CCCCC3 — 4.3-fold higher, 5.13 µM
